Laboratory results taken from patent US11173151B2, “Substituted triazole derivatives and uses thereof” (BAYER AKTIENGESELLSCHAFT, priority 2017, dated 2021).
pIC50: −log10 of the molar value. Read-outs that look alike come from different tables or passages of the source.

Legend:
human V1a receptor = target: T1, human V1a receptor (Homo sapiens, UniProt P37288); test: Cellular in vitro assay for determining vasopressin receptor activity, V1a receptor cell line (CHO, aequorin luminescence); type: cell-based; details: for pIC50: CHO cell line transfected with human V1a receptor, [Arg]-vasopressin at EC50 concentration, read-out: IC50 hV1a; for ratio IC50 hV2/hV1a: selectivity ratio IC50 hV2 / IC50 hV1a
T1 construct: expressed in transfected cells; host or cells: CHO K1 (ATCC), also stably transfected with a modified aequorin
T1 sequence (P37288 whole entry): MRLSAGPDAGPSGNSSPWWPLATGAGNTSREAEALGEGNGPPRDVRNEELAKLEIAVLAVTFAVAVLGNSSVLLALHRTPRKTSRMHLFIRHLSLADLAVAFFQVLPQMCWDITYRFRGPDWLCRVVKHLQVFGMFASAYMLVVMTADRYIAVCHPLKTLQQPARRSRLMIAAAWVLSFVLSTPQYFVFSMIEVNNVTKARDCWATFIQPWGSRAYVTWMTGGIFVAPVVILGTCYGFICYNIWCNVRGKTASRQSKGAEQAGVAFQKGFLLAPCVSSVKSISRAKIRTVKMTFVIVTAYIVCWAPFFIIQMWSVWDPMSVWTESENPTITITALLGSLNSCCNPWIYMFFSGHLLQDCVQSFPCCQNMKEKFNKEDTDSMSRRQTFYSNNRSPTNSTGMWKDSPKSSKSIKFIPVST
In short: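 Antagonism is measured in stable CHO K1 transfectants coexpressing the Gαq-coupled receptor and a calcium-sensitive aequorin photoprotein. Agonist challenge uses [Arg]-vasopressin at EC50 after a 10-minute compound exposure; IC50 values come from the luminescence signal.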

human V2 receptor = target: T2, human V2 receptor (Homo sapiens, UniProt P30518); test: Cellular in vitro assay for determining vasopressin receptor activity, V2 receptor cell line (CHO, CRE-luciferase); type: cell-based; details: CHO cell line transfected with human V2 receptor, [Arg8]-vasopressin at EC50 concentration, read-out: IC50 hV2
T2 construct: expressed in transfected cells; host or cells: CHO K1 (ATCC) expressing firefly luciferase under a CRE-responsive promoter
T2 sequence (P30518 whole entry): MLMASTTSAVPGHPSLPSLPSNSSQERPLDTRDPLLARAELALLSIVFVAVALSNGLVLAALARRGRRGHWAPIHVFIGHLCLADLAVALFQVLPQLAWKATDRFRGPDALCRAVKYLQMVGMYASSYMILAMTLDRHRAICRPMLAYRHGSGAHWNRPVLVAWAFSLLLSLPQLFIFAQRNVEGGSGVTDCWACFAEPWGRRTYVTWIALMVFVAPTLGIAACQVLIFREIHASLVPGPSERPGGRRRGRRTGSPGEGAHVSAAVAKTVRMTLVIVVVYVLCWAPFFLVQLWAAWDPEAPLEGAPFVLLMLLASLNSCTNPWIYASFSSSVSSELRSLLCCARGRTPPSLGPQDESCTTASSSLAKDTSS

pIC50 (human V1a receptor) | ratio IC50 hV2/hV1a (human V1a receptor) | pIC50 (human V2 receptor; 3 hours) | pIC50 (human V2 receptor) | SMILES
6.94 | 1.1 | 6.90 | – | O=c1n(Cc2ncn(-c3cnccc3NCC3(O)CC3)n2)nc(-c2ccc(Cl)cc2)n1C[C@H](O)C(F)(F)F [Example 4, 5-(4-Chlorophenyl)-2-{[1-(4-{[(1-hydroxycyclopropyl)methyl]amino}pyridin-3-yl)-1H-1,2,4-triazol-3-yl]methyl}-4-[(2S)-3,3,3-trifluoro-2-hydroxypropyl]-2,4-dihydro-3H-1,2,4-triazol-3-one]
6.56 | 17.6 | – | 5.31 | COCC1CCCN1C(=O)c1cccnc1-n1nc(Cn2nc(-c3ccc(Cl)cc3)n(C[C@H](O)C(F)(F)F)c2=O)nc1C(=O)N1CCS(=O)(=O)CC1 (mixture of isomers) [Example 532, 5-(4-Chlorophenyl)-2-({5-[(1,1-dioxidothiomorpholin-4-yl)carbonyl]-1-(3-{[2-(methoxymethyl)pyrrolidin-1-yl]carbonyl}pyridin-2-yl)-1H-1,2,4-triazol-3-yl}methyl)-4-[(2S)-3,3,3-trifluoro-2-hydroxypropyl]-2,4-dihydro-3H-1,2,4-triazol-3-one]
7.66 | 38.9 | 6.07 | – | NC(CNC(=O)c1ccccc1-n1cnc(Cn2nc(-c3ccc(Cl)cc3)n(C[C@H](O)C(F)(F)F)c2=O)n1)C(F)(F)C(F)F (mixture of isomers) [Example 196, N-[2-Amino-3,3,4,4-tetrafluorobutyl]-2-[3-({3-(4-chlorophenyl)-5-oxo-4-[(2S)-3,3,3-trifluoro-2-hydroxypropyl]-4,5-dihydro-1H-1,2,4-triazol-1-yl}methyl)-1H-1,2,4-triazol-1-yl]benzamide]
8.21 | 59.3 | 6.44 | – | O=C(NC1CCCCCC1)c1ccccc1-n1cnc(Cn2nc(-c3ccc(Cl)cc3)n(C[C@H](O)C(F)(F)F)c2=O)n1 [Example 342, 2-[3-({3-(4-Chlorophenyl)-5-oxo-4-[(2S)-3,3,3-trifluoro-2-hydroxypropyl]-4,5-dihydro-1H-1,2,4-triazol-1-yl}methyl)-1H-1,2,4-triazol-1-yl]-N-cycloheptylbenzamide]
5.29 | 4.6 | – | 4.63 | O=C1CN(c2nc(Cn3nc(-c4ccc(Cl)cc4)n(C[C@H](O)C(F)(F)F)c3=O)nn2-c2cccnc2C(=O)N[C@@H]2C[C@@H]2F)CCN1 (racemic) [Example 508, 3-[3-({3-(4-Chlorophenyl)-5-oxo-4-[(2S)-3,3,3-trifluoro-2-hydroxypropyl]-4,5-dihydro-1H-1,2,4-triazol-1-yl}methyl)-5-(3-oxopiperazin-1-yl)-1H-1,2,4-triazol-1-yl]-N-[2-fluorocyclopropyl]pyridine-2-carboxamide]
6.58 | 22.3 | – | 5.23 | O=C(c1ncccc1-n1cnc(Cn2nc(-c3ccc(Cl)cc3)n(C[C@H](O)C(F)(F)F)c2=O)n1)N1CCS(=O)(=O)CC1 [Example 452, 5-(4-Chlorophenyl)-2-[(1-{2-[(1,1-dioxidothiomorpholin-4-yl)carbonyl]pyridin-3-yl}-1H-1,2,4-triazol-3-yl)methyl]-4-[(2S)-3,3,3-trifluoro-2-hydroxypropyl]-2,4-dihydro-3H-1,2,4-triazol-3-one]
8.68 | 266.7 | 6.25 | – | CNCC(=O)Nc1ncccc1-n1cnc(Cn2nc(-c3ccc(Cl)cc3)n(C[C@H](O)C(F)(F)F)c2=O)n1 [Example 96]
6.96 | 9.3 | – | 5.99 | O=C(c1ncccc1-n1cnc(Cn2nc(-c3ccc(Cl)cc3)n(C[C@H](O)C(F)(F)F)c2=O)n1)N1CCC[C@@H]1C(F)(F)F [Example 451, 5-(4-Chlorophenyl)-4-[(2S)-3,3,3-trifluoro-2-hydroxypropyl]-2-{[1-(2-{[(2R)-2-(trifluoromethyl)pyrrolidin-1-yl]carbonyl}pyridin-3-yl)-1H-1,2,4-triazol-3-yl]methyl}-2,4-dihydro-3H-1,2,4-triazol-3-one]
8.43 | 880.0 | 5.48 | – | O=C(NCc1ccncc1)c1ccccc1-n1cnc(Cn2nc(-c3ccc(Cl)cc3)n(C[C@H](O)C(F)(F)F)c2=O)n1 [Example 302, 2-[3-({3-(4-Chlorophenyl)-5-oxo-4-[(2S)-3,3,3-trifluoro-2-hydroxypropyl]-4,5-dihydro-1H-1,2,4-triazol-1-yl}methyl)-1H-1,2,4-triazol-1-yl]-N-(pyridin-4-ylmethyl)benzamide]
8.68 | 685.7 | 5.84 | – | CC1SCCN1C(=O)c1ccccc1-n1cnc(Cn2nc(-c3ccc(Cl)cc3)n(C[C@H](O)C(F)(F)F)c2=O)n1 (mixture of isomers) [Example 270, 5-(4-Chlorophenyl)-2-{[1-(2-{[2-methyl-1,3-thiazolidin-3-yl]carbonyl}phenyl)-1H-1,2,4-triazol-3-yl]methyl}-4-[(2S)-3,3,3-trifluoro-2-hydroxypropyl]-2,4-dihydro-3H-1,2,4-triazol-3-one]
7.35 | 16.0 | – | 6.15 | O=C(NCC(O)C(F)(F)F)c1ncccc1-n1cnc(Cn2nc(-c3ccc(Cl)cc3)n(C[C@H](O)C(F)(F)F)c2=O)n1 (mixture of isomers) [Example 430, 3-[3-({3-(4-Chlorophenyl)-5-oxo-4-[(2S)-3,3,3-trifluoro-2-hydroxypropyl]-4,5-dihydro-1H-1,2,4-triazol-1-yl}methyl)-1H-1,2,4-triazol-1-yl]-N-[3,3,3-trifluoro-2-hydroxypropyl]pyridine-2-carboxamide]
6.21 | 51.6 | – | 4.49 | NC(=O)C1CCCN1C(=O)c1ncccc1-n1cnc(Cn2nc(-c3ccc(Cl)cc3)n(C[C@@H](O)C(F)(F)F)c2=O)n1 (mixture of isomers) [Example 467, 1-({3-[3-({3-(4-chlorophenyl)-5-oxo-4-[(2R)-3,3,3-trifluoro-2-hydroxypropyl]-4,5-dihydro-1H-1,2,4-triazol-1-yl}methyl)-1H-1,2,4-triazol-1-yl]pyridin-2-yl}carbonyl)-prolinamide]
8.18 | 174.2 | 5.94 | – | O=C(c1ccccc1-n1cnc(Cn2nc(-c3ccc(Cl)cc3)n(C[C@H](O)C(F)(F)F)c2=O)n1)N1CC[C@@H](O)C1 [Example 291, 5-(4-Chlorophenyl)-2-{[1-(2-{[(3R)-3-hydroxypyrrolidin-1-yl]carbonyl}phenyl)-1H-1,2,4-triazol-3-yl]methyl}-4-[(2S)-3,3,3-trifluoro-2-hydroxypropyl]-2,4-dihydro-3H-1,2,4-triazol-3-one]
9.08 | 536.1 | 6.35 | – | CN(CC1CC1)C(=O)c1ccccc1-n1cnc(Cn2nc(-c3ccc(Cl)cc3)n(C[C@H](O)C(F)(F)F)c2=O)n1 [Example 289, 2-[3-({3-(4-Chlorophenyl)-5-oxo-4-[(2S)-3,3,3-trifluoro-2-hydroxypropyl]-4,5-dihydro-1H-1,2,4-triazol-1-yl}methyl)-1H-1,2,4-triazol-1-yl]-N-(cyclopropylmethyl)-N-methylbenzamide]
7.02 | 29.5 | – | 5.55 | CC1(NC(=O)c2cccnc2-n2nc(Cn3nc(-c4ccc(Cl)cc4)n(C[C@H](O)C(F)(F)F)c3=O)nc2C(=O)N2CCS(=O)(=O)CC2)CC1 [Example 531, 2-{3-({3-(4-Chlorophenyl)-5-oxo-4-[(2S)-3,3,3-trifluoro-2-hydroxypropyl]-4,5-dihydro-1H-1,2,4-triazol-1-yl}methyl)-5-[(1,1-dioxidothiomorpholin-4-yl)carbonyl]-1H-1,2,4-triazol-1-yl}-N-(1-methylcyclopropyl)pyridine-3-carboxamide]
8.92 | 3125.0 | 5.43 | – | CC1=NN=C(C)C1NC(=O)c1ccccc1-n1cnc(Cn2nc(-c3ccc(Cl)cc3)n(C[C@H](O)C(F)(F)F)c2=O)n1 [Example 201, 2-[3-({3-(4-Chlorophenyl)-5-oxo-4-[(2S)-3,3,3-trifluoro-2-hydroxypropyl]-4,5-dihydro-1H-1,2,4-triazol-1-yl}methyl)-1H-1,2,4-triazol-1-yl]-N-(3,5-dimethyl-4H-pyrazol-4-yl)benzamide]
8.25 | 154.5 | 6.06 | – | O=C(CC(F)(F)F)Nc1ncccc1-n1cnc(Cn2nc(-c3ccc(Cl)cc3)n(C[C@H](O)C(F)(F)F)c2=O)n1 [Example 74, N-{3-[3-({3-(4-Chlorophenyl)-5-oxo-4-[(2S)-3,3,3-trifluoro-2-hydroxypropyl]-4,5-dihydro-1H-1,2,4-triazol-1-yl}methyl)-1H-1,2,4-triazol-1-yl]pyridin-2-yl}-3,3,3-trifluoropropanamide]
7.84 | 172.4 | 5.60 | – | CN(C)C1CN(C(=O)c2ccccc2-n2cnc(Cn3nc(-c4ccc(Cl)cc4)n(C[C@H](O)C(F)(F)F)c3=O)n2)C1 [Example 286, 5-(4-Chlorophenyl)-2-{[1-(2-{[3-(dimethylamino)azetidin-1-yl]carbonyl}phenyl)-1H-1,2,4-triazol-3-yl]methyl}-4-[(2S)-3,3,3-trifluoro-2-hydroxypropyl]-2,4-dihydro-3H-1,2,4-triazol-3-one]
8.06 | 69.7 | 6.21 | – | O=C(NCc1ccccn1)c1ccccc1-n1cnc(Cn2nc(-c3ccc(Cl)cc3)n(C[C@H](O)C(F)(F)F)c2=O)n1 [Example 301, 2-[3-({3-(4-Chlorophenyl)-5-oxo-4-[(2S)-3,3,3-trifluoro-2-hydroxypropyl]-4,5-dihydro-1H-1,2,4-triazol-1-yl}methyl)-1H-1,2,4-triazol-1-yl]-N-(pyridin-2-ylmethyl)benzamide]
